Assay results from US8883841B2, “Oncogenic ras-specific cytotoxic compound and methods of use thereof” (The Board of Regents of the University of Texas System, priority 2005, dated 2014).
Entries after “also recorded” stand apart in the source; their conditions may differ. Where two headings read alike, the source gives them in different places.

Experiments:
[1] = tested on: AsPC-1; assay: Cell viability, AsPC-1 pancreatic cancer cells; format: cell-based, human
[2] = tested on: Hey; assay: Cell viability, Hey ovary cancer cells; format: cell-based
[3] = tested on: H1933; assay: Cell viability, H1933 lung cancer cells; format: cell-based, human; conditions: H1933, Lung
[4] = tested on: H226B cells; assay: Cell viability, H226B lung cancer cells; format: cell-based, human
[5] = tested on: H2122; assay: Cell viability, H2122 lung cancer cells; format: cell-based, human
[6] = tested on: A549 cells; assay: Cell viability, A549 lung cancer cells; format: cell-based, human
[7] = tested on: H1395; assay: Cell viability, H1395 lung cancer cells; format: cell-based, human
[8] = tested on: H1299 cells; assay: Cell viability, H1299 lung cancer cells; format: cell-based, human
[9] = tested on: Hct116; assay: Cell viability, Hct116 colon cancer cells; format: cell-based, human
[10] = tested on: Heb46; assay: Cell viability, Heb46 kidney cells; format: cell-based
[11] = tested on: Sw620; assay: Cell viability, Sw620 colon cancer cells; format: cell-based, human; conditions: Sw620, Colon
[12] = tested on: HKE3; assay: Cell viability, HKE3 colon cancer cells; format: cell-based, human; conditions: HKE3, Colon; for IC50: Homo sapiens, read-out: IC50 (−LogM) (converted)
[13] = tested on: CT116P53; assay: Cell viability, CT116P53 colon cancer cells; format: cell-based, human; conditions: CT116P53, Colon
[14] = tested on: A549CK8; assay: Cell viability, A549CK8 lung cancer cells; format: cell-based, human; conditions: A549CK8, Lung
[15] = tested on: miapac; assay: Cell viability, miapac pancreatic cancer cells; format: cell-based, human; conditions: miapac, Pancrease
[16] = tested on: Capanc-1; assay: Cell viability, Capanc-1 pancreatic cancer cells; format: cell-based, human
[17] = tested on: Ovcar3; assay: Cell viability, Ovcar3 ovary cancer cells; format: cell-based
[18] = tested on: H2009; assay: Cell viability, H2009 lung cancer cells; format: cell-based, human; conditions: H2009, Lung
[19] = tested on: Heb44; assay: Cell viability, Heb44 kidney cells; format: cell-based
[20] = tested on: DLD1; assay: Cell viability, DLD1 colon cancer cells; format: cell-based, human; conditions: DLD1, Colon
[21] = tested on: HS 578T; assay: NCI in-vitro testing, HS 578T (Breast Cancer)
[22] = tested on: SF-295; assay: NCI in-vitro testing, SF-295 (CNS Cancer)
[23] = tested on: MALME-3M; assay: NCI in-vitro testing, MALME-3M (Melanoma)
[24] = tested on: UACC-62; assay: NCI in-vitro testing, UACC-62 (Melanoma)
[25] = tested on: SW-620; assay: NCI in-vitro testing, SW-620 (Colon Cancer)
[26] = tested on: HOP-92; assay: NCI in-vitro testing, HOP-92 (Non-Small Cell Lung Cancer)
[27] = tested on: MCF7; assay: NCI in-vitro testing, MCF7 (Breast Cancer)
[28] = tested on: KM12; assay: NCI in-vitro testing, KM12 (Colon Cancer)
[29] = Homo sapiens, read-out: IC50 (−LogM) (converted)

O=Cc1cn(Cc2ccc(Cl)cc2)c2ccccc12 [Oncrasin K001, 1H-Indole-3-carboxaldehyde, 1-[(4-chlorophenyl)methyl]-(9CI)]
IC50 (−LogM) ([1]; ASPC1, Pancrease): 5.5 −LogM | IC50 ([1]; K-Ras G12D mutation, read-out: IC50, AsPC-1): 0.04 µM | IC50 (−LogM) [2]: 4.6 −LogM | IC50 (−LogM) [3]: >4.5 −LogM | IC50 (−LogM) ([4]; H226B, Lung, first H226B line): 7 −LogM | IC50 (−LogM) ([4]; H226B, Lung, second H226B line): 5.6 −LogM | IC50 ([4]; Ras status not known, read-out: IC50, H226B cells): 1.2 µM | effect on H226b cells ([4]; ras status unknown): effective | IC50 (−LogM) ([5]; H2122, Lung): 6.1 −LogM | IC50 ([5]; K-Ras G12C, read-out: IC50, H2122): 0.79 µM | effect on H212 cells ([5]; lung cancer cell line, G12C): highly effective | IC50 (−LogM) ([6]; A549, Lung): >4.5 −LogM | IC50 ([6]; K-Ras G12S, read-out: IC50, A549 cells): 1.58 µM | IC50 (−LogM) ([7]; H1395, Lung): >4.5 −LogM | effect on H1395 cells ([7]; wild-type Ras): minimal effect | IC50 (−LogM) ([8]; h1299, Lung): >4.5 −LogM | effect on H1299 cells ([8]; mutant N-Ras, listed as Oncrasin-1): minimal effect; also recorded: not effective | IC50 ([9]; G13D mutation in K-Ras, read-out: IC50, HCT116): 3.1 µM | IC50 (−LogM) ([9]; Hct116, Colon): 5.5 −LogM | IC50 (−LogM) [10]: 6.1 −LogM | IC50 (−LogM) [11]: 5.4 −LogM | IC50 (−LogM) ([12]; first HKE3 line): 6.4 −LogM | IC50 (−LogM) ([12]; second HKE3 line): 6 −LogM | IC50 (−LogM) [13]: >4.5 −LogM | IC50 (−LogM) [14]: 5.8 −LogM | IC50 (−LogM) [15]: >4.5 −LogM | IC50 ([16]; K-Ras G12V mutation, read-out: IC50, Capanc-1): 0.42 µM | IC50 (−LogM) ([16]; capanc1, Pancrease): 5 −LogM | IC50 (−LogM) [17]: 5.6 −LogM | IC50 (−LogM) [18]: >4.5 −LogM | IC50 (−LogM) [19]: 8 −LogM | IC50 (−LogM) [20]: >4.5 −LogM

OCc1cn(Cc2ccc(Cl)cc2)c2ccccc12 [Oncrasin K060, 1H-Indole-3-methanol, 1-[(4-chlorophenyl)methyl]-]
IC50 ([1]; Homo sapiens, ASPC1, Pancrease, read-out: IC50 (−LogM) (converted)): 2 µM | TGI [21]: 2.75E−5 Molar | GI50 ([21]; Homo sapiens, Hs-578T): 46.8 µM | CC50 ([21]; Homo sapiens, Hs-578T, read-out: LC50): > 100 µM | GI50 ([21]; Homo sapiens, Hs-578T, read-out: Log10 GI50 (converted)): 4.68 µM | IC50 [2]: 10 µM | IC50 [3, 29]: 10 µM | IC50 ([4]; Homo sapiens, H226B, Lung, first H226B line, read-out: IC50 (−LogM) (converted)): 0.00251 µM | IC50 ([4]; Homo sapiens, H226B, Lung, second H226B line, read-out: IC50 (−LogM) (converted)): 0.00316 µM | IC50 ([5]; Homo sapiens, NCI-H2122, H2122, Lung, read-out: IC50 (−LogM) (converted)): 1 µM | GI50 ([22]; Homo sapiens, SF-295): 14.3 µM | CC50 ([22]; Homo sapiens, SF-295, read-out: LC50): > 100 µM | GI50 ([22]; Homo sapiens, SF-295, read-out: Log10 GI50 (converted)): 1.41 µM | TGI ([22]; SF-295): 3.52E−5 Molar | Percent Growth ([22]; SF-295, Log10 Concentration −4.0 Molar): −15% | Percent Growth ([22]; SF-295, Log10 Concentration −5.0 Molar): 18% | Percent Growth ([22]; SF-295, Log10 Concentration −6.0 Molar): 56% | Percent Growth ([22]; SF-295, Log10 Concentration −7.0 Molar): 80% | Percent Growth ([22]; SF-295, Log10 Concentration −8.0 Molar): 104% | IC50 ([6]; Homo sapiens, A549, Lung, read-out: IC50 (−LogM) (converted)): 2 µM | GI50 ([23]; Homo sapiens, Malme-3M): 51.7 µM | CC50 ([23]; Homo sapiens, Malme-3M, read-out: LC50): 82 µM | GI50 ([23]; Homo sapiens, Malme-3M, read-out: Log10 GI50 (converted)): 5.13 µM | TGI ([23]; MALME-3M): 2.37E−5 Molar | Percent Growth ([23]; MALME-3M, Log10 Concentration −4.0 Molar): −58% | Percent Growth ([23]; MALME-3M, Log10 Concentration −5.0 Molar): 35% | Percent Growth ([23]; MALME-3M, Log10 Concentration −6.0 Molar): 88% | Percent Growth ([23]; MALME-3M, Log10 Concentration −7.0 Molar): 114% | Percent Growth ([23]; MALME-3M, Log10 Concentration −8.0 Molar): 105% | GI50 ([24]; Homo sapiens, UACC-62): 0.0451 µM | CC50 ([24]; Homo sapiens, UACC-62, read-out: LC50): 11.4 µM | GI50 ([24]; Homo sapiens, UACC-62, read-out: Log10 GI50 (converted)): 0.0447 µM | TGI ([24]; UACC-62): 8.97E−7 Molar | Percent Growth ([24]; UACC-62, Log10 Concentration −4.0 Molar): −94% | Percent Growth ([24]; UACC-62, Log10 Concentration −5.0 Molar): −47% | Percent Growth ([24]; UACC-62, Log10 Concentration −6.0 Molar): −2% | Percent Growth ([24]; UACC-62, Log10 Concentration −7.0 Molar): 35% | Percent Growth ([24]; UACC-62, Log10 Concentration −8.0 Molar): 79% | IC50 ([7]; Homo sapiens, NCI-H1395, H1395, Lung, read-out: IC50 (−LogM) (converted)): 20 µM | IC50 ([8]; Homo sapiens, NCI-H1299, h1299, Lung, read-out: IC50 (−LogM) (converted)): 3.16 µM | GI50 ([25]; Homo sapiens, SW-620): 0.571 µM | CC50 ([25]; Homo sapiens, SW-620, read-out: LC50): > 100 µM | GI50 ([25]; Homo sapiens, SW-620, read-out: Log10 GI50 (converted)): 0.575 µM | TGI ([25]; SW-620): 1.80E−5 Molar | Percent Growth ([25]; SW-620, Log10 Concentration −4.0 Molar): −46% | Percent Growth ([25]; SW-620, Log10 Concentration −5.0 Molar): 16% | Percent Growth ([25]; SW-620, Log10 Concentration −6.0 Molar): 39% | Percent Growth ([25]; SW-620, Log10 Concentration −7.0 Molar): 83% | Percent Growth ([25]; SW-620, Log10 Concentration −8.0 Molar): 94% | TGI ([26]; HOP-92): 2.39E−5 Molar | Percent Growth ([26]; HOP-92, Log10 Concentration −4.0 Molar): −60% | Percent Growth ([26]; HOP-92, Log10 Concentration −5.0 Molar): 34% | Percent Growth ([26]; HOP-92, Log10 Concentration −6.0 Molar): 88% | Percent Growth ([26]; HOP-92, Log10 Concentration −7.0 Molar): 81% | Percent Growth ([26]; HOP-92, Log10 Concentration −8.0 Molar): 97% | GI50 ([26]; Homo sapiens, HOP-92): 5.17 µM | CC50 ([26]; Homo sapiens, HOP-92, read-out: LC50): 77.6 µM | GI50 ([26]; Homo sapiens, HOP-92, read-out: Log10 GI50 (converted)): 5.13 µM | GI50 ([27]; Homo sapiens, MCF7): 0.0573 µM | CC50 ([27]; Homo sapiens, MCF7, read-out: LC50): > 100 µM | GI50 ([27]; Homo sapiens, MCF7, read-out: Log10 GI50 (converted)): 0.0676 µM | TGI ([27]; MCF7): 2.75E−5 Molar | Percent Growth ([27]; MCF7, Log10 Concentration −4.0 Molar): −10% | Percent Growth ([27]; MCF7, Log10 Concentration −5.0 Molar): 8% | Percent Growth ([27]; MCF7, Log10 Concentration −6.0 Molar): 10% | Percent Growth ([27]; MCF7, Log10 Concentration −7.0 Molar): 45% | Percent Growth ([27]; MCF7, Log10 Concentration −8.0 Molar): 75% | IC50 ([9]; Homo sapiens, HCT-116, Hct116, Colon, read-out: IC50 (−LogM) (converted)): 0.1 µM | IC50 [10]: 0.2 µM | IC50 ([11]; Homo sapiens, SW-620, read-out: IC50 (−LogM) (converted)): 5.01 µM | IC50 ([12]; first HKE3 line): 0.0251 µM | IC50 ([12]; second HKE3 line): < 0.00316 µM | IC50 [13, 29]: < 31.6 µM | IC50 [14, 29]: 1 µM | IC50 ([15]; Homo sapiens, Pancreatic cancer cell, read-out: IC50 (−LogM) (converted)): < 31.6 µM | GI50 ([28]; Homo sapiens, KM12): 18.3 µM | CC50 ([28]; Homo sapiens, KM12, read-out: LC50): 9.44 µM | GI50 ([28]; Homo sapiens, KM12, read-out: Log10 GI50 (converted)): 18.2 µM | TGI ([28]; KM12): 1.15E−6 Molar | Percent Growth ([28]; KM12, Log10 Concentration −4.0 Molar): −64% | Percent Growth ([28]; KM12, Log10 Concentration −5.0 Molar): 87% | Percent Growth ([28]; KM12, Log10 Concentration −6.0 Molar): 102% | Percent Growth ([28]; KM12, Log10 Concentration −7.0 Molar): 113% | Percent Growth ([28]; KM12, Log10 Concentration −8.0 Molar): 108% | IC50 ([16]; Homo sapiens, Pancreatic cancer cell, capanc1, Pancrease, read-out: IC50 (−LogM) (converted)): 10 µM | IC50 ([17]; Homo sapiens, OVCAR-3): 0.1 µM | IC50 ([18]; Homo sapiens, NCI-H2009, read-out: IC50 (−LogM) (converted)): 15.8 µM | IC50 [19]: 0.01 µM | IC50 ([20]; Homo sapiens, DLD-1, read-out: IC50 (−LogM) (converted)): < 31.6 µM
